System: human adult PBMCs
Experiment: TNF production by ELISA after stimulation of human adult PBMCs
Format: cell-based
Details: adult PBMCs, 33 μM, 18 hours; for TNF (Median): ELISA, unit not given (FIG. 6B/7B legends: TNF concentration in ng/ml); for TNF (Median) / TNF % (Median): N=3-5; for Activity class: class according to TNF % as compared to R848; for TNF % (Median): median percentage TNF production as compared to R848
Method: Table 1. Activity of Exemplary Imidazopyrimidine Compounds on Stimulating TNF Production in PBMCs as Compared to Compound R848 Table 1 provides the activity of exemplary compounds on stimulating TNF production in PBMCs as compared to the benchmark compound R848. Specifically, TNF production was measured by ELISA after stimulation of adult PBMCs with compound 037 analog family or the compound R848 at 33 μM for 18 hours. Analogs are ranked top to bottom by median percentage TNF production (TNF %) as compared to R848 (N=3-5). The compounds have been classified in the following categories according to TNF %: high activity—class A: TNF %>15%; medium activity—class B: 1%<TNF %≤15%; low activity—class C: TNF %≤1%.
ELISAs and Multiplex-Analyte Assays. Supernatants derived from human PBMCs and DC stimulations were assayed by ELISA for TNF (ThermoFisher Scientific; Waltham, Mass., USA). Cytokine and chemokine expression profiles (e.g., IFNγ, IL-9, IL-10, IL-12 (p70), IL-13, IL-1β, IL-23, IL-27, IL-28A, IL-33, IL-6, MIP-3α/CCL20, and TNF) in cell culture supernatants were measured using a customized Milliplex® Human Th17 Magnetic Bead Panel according to the manufacturer's instructions (Millipore, Chicago, Ill., USA). Assays were read and analyzed on the Luminex® 100/200™ System and xPOTENT® software (Luminex, Austin, Tex.). A minimum threshold was set at the minimum detectable concentration for each individual assay, defined as three standard deviations above the mean background.
PBMCs were isolated from blood using a Ficoll density gradient. PBMCs either used fresh or were stored at 5×10^7 cells per vial in 1 mL RPMI containing 20% autologous plasma and 10% DMSO at −80° C. until use. Stimulation plates were prepared by transferring 0.66 μl of DMSO-dissolved compounds (10 mM) to each well of a round bottom 96-well plate. PBMCs isolated from human adult donors were resuspended at a concentration of 10^5 cells/200 μl of RPMI supplemented with 10% of platelet-poor plasma. 200 μl of the cell suspension were transferred to each well resulting in a final compound concentration of […]. After about 18 hours of incubation (37° C., 5% CO2), plates were spun down (500×g, room temperature, 5 minutes) and supernatants were harvested for further analysis.

## Cc1ccc(-c2cn3cc(F)cnc3n2)cc1NC(=O)c1ccccc1C [FRF-02-117]
  TNF (Median): 0.138
  Activity class: B (medium activity—class B: 1%<TNF %≤15%)
  TNF % (Median): 3.06%

## Cc1ccc(-c2cn3cc(F)cnc3n2)cc1NC(=O)C(CO)c1ccccc1 (stereo not drawn) [FRF-02-194]
  TNF (Median): 0.008
  Activity class: C (low activity—class C: TNF %≤1%)
  TNF % (Median): 0.18%

## CCC(C(=O)Nc1cc(-c2cn3cc(C)cnc3n2)ccc1C)c1ccccc1 (stereo not drawn) [FRF-02-144-1, N-(2-Methyl-5-(6-methylimidazo[1,2-a]pyrimidin-2-yl)phenyl)-2-phenylbutanamide]
  TNF (Median): 3.144
  Activity class: A (high activity—class A: TNF %>15%)
  TNF % (Median): 55.24%

## Cc1cnc2nc(-c3ccc(Cl)c(NC(=O)c4ccccc4C(F)(F)F)c3)cn2c1 [FRF-02-174-2]
  TNF (Median): 0.1455
  Activity class: B (medium activity—class B: 1%<TNF %≤15%)
  TNF % (Median): 13.99%

## CCC(C(=O)Nc1cc(-c2cn3cc(OC)cnc3n2)ccc1C)c1ccccc1 (stereo not drawn) [FRF-02-137]
  TNF (Median): 0.04
  Activity class: B (medium activity—class B: 1%<TNF %≤15%)
  TNF % (Median): 1.27%

## CCC(C(=O)Nc1cc(-c2cn3cc(F)cnc3n2)ccc1C)c1ccccc1 (stereo not drawn) [FRF-02-119, N-(5-(6-Fluoroimidazo[1,2-a]pyrimidin-2-yl)-2-methylphenyl)-2-phenylbutanamide]
  TNF (Median): 0.219
  Activity class: B (medium activity—class B: 1%<TNF %≤15%)
  TNF % (Median): 4.35%

## Cc1ccc(-c2cn3cccnc3n2)cc1NC(=O)c1ccccc1Cl [Example 37.33]
  TNF (Median): 0.288
  Activity class: A (high activity—class A: TNF %>15%)
  TNF % (Median): 22.94%

## Cc1ccc(-c2cn3cc(F)cnc3n2)cc1NC(=O)C(C)c1ccccc1 (stereo not drawn) [FRF-03-081]
  TNF (Median): 0.3195
  Activity class: B (medium activity—class B: 1%<TNF %≤15%)
  TNF % (Median): 7.51%

## Cc1cnc2nc(-c3ccc(C)c(NC(=O)c4ccccc4Cl)c3)cn2c1 [FRF-02-144-2]
  TNF (Median): 2.5245
  Activity class: A (high activity—class A: TNF %>15%)
  TNF % (Median): 104.32%

## COc1ccc(C(=O)Nc2cc(-c3cn4cc(F)cnc4n3)ccc2C)c(C)c1 [FRF-02-176]
  TNF (Median): 0.087
  Activity class: B (medium activity—class B: 1%<TNF %≤15%)
  TNF % (Median): 3.81%

## Cc1cnc2nc(-c3ccc(C)c(NC(=O)Cc4ccccc4)c3)cn2c1 [FRF-02-162-1]
  TNF (Median): 0.008
  Activity class: C (low activity—class C: TNF %≤1%)
  TNF % (Median): 0.42%

## COc1cnc2nc(-c3ccc(C)c(NC(=O)c4ccccc4Br)c3)cn2c1 [FRF-02-132]
  TNF (Median): 0.008
  Activity class: C (low activity—class C: TNF %≤1%)
  TNF % (Median): 0.18%

## Cc1ccc(-c2cn3cccnc3n2)cc1NC(=O)c1ccccc1C(F)(F)F [Example 37.37]
  TNF (Median): 3.73
  Activity class: A (high activity—class A: TNF %>15%)
  TNF % (Median): 71.12%

## Cc1cnc2nc(-c3ccc(C)c(NC(=O)c4ccccc4C)c3)cn2c1 [FRF-02-162-2]
  TNF (Median): 0.309
  Activity class: B (medium activity—class B: 1%<TNF %≤15%)
  TNF % (Median): 6.34%

## Cc1ccc(C(=O)Nc2cc(-c3cn4cc(F)cnc4n3)ccc2C)c(C(F)(F)F)c1 [FRF-02-171]
  TNF (Median): 2.1615
  Activity class: A (high activity—class A: TNF %>15%)
  TNF % (Median): 65.93%

## CCC(C(=O)Nc1cc(-c2cn3cc(C)cnc3n2)ccc1Cl)c1ccccc1 (stereo not drawn) [FRF-02-174-1]
  TNF (Median): 0.924
  Activity class: A (high activity—class A: TNF %>15%)
  TNF % (Median): 35.71%

## Cc1ccc(-c2cn3cc(F)cnc3n2)cc1NC(=O)c1c(F)cccc1C(F)(F)F [FRF-02-175]
  TNF (Median): 0.063
  Activity class: B (medium activity—class B: 1%<TNF %≤15%)
  TNF % (Median): 1.43%

## Cc1ccc(-c2cn3cccnc3n2)cc1NC(=O)C(CO)c1ccccc1 (stereo not drawn) [FRF-02-193]
  TNF (Median): 2.997
  Activity class: A (high activity—class A: TNF %>15%)
  TNF % (Median): 91.73%

## Cc1ccc(-c2cn3cc(F)cnc3n2)cc1NC(=O)c1ccccc1Br [FRF-02-116]
  TNF (Median): 0.594
  Activity class: B (medium activity—class B: 1%<TNF %≤15%)
  TNF % (Median): 8.48%

## Cc1ccc(-c2cn3cc(F)cnc3n2)cc1NC(=O)c1cc(F)ccc1C(F)(F)F [FRF-02-166]
  TNF (Median): 2.0745
  Activity class: A (high activity—class A: TNF %>15%)
  TNF % (Median): 53.91%

## Cc1ccc(-c2cn3cc(F)cnc3n2)cc1NC(=O)c1ccccc1Cl [FRF-02-115]
  TNF (Median): 0.0625
  Activity class: B (medium activity—class B: 1%<TNF %≤15%)
  TNF % (Median): 2.42%

## COc1cnc2nc(-c3ccc(C)c(NC(=O)c4ccccc4C)c3)cn2c1 [FRF-02-134]
  TNF (Median): 0.008
  Activity class: C (low activity—class C: TNF %≤1%)
  TNF % (Median): 0.18%

## COc1cnc2nc(-c3ccc(C)c(NC(=O)c4ccccc4Cl)c3)cn2c1 [FRF-02-131]
  TNF (Median): 0.008
  Activity class: C (low activity—class C: TNF %≤1%)
  TNF % (Median): 0.18%

## COc1ccc(C)c(C(=O)Nc2cc(-c3cn4cc(F)cnc4n3)ccc2C)c1 [FRF-02-187]
  TNF (Median): 1.191
  Activity class: A (high activity—class A: TNF %>15%)
  TNF % (Median): 31.32%

## COc1ccc(C(=O)Nc2cc(-c3cn4cccnc4n3)ccc2C)c(C)c1 [FRF-02-182]
  TNF (Median): 0.008
  Activity class: C (low activity—class C: TNF %≤1%)
  TNF % (Median): 0.39%

## Cc1ccc(-c2cn3cc(F)cnc3n2)cc1NC(=O)c1ccc(Cl)cc1C(F)(F)F [FRF-02-169]
  TNF (Median): 0.008
  Activity class: C (low activity—class C: TNF %≤1%)
  TNF % (Median): 0.18%

## COc1ccc(C)c(C(=O)Nc2cc(-c3cn4cccnc4n3)ccc2C)c1 [FRF-02-183]
  TNF (Median): 0.008
  Activity class: C (low activity—class C: TNF %≤1%)
  TNF % (Median): 0.77%

## Cc1ccc(-c2cn3cc(F)cnc3n2)cc1NC(=O)c1ccc(F)cc1C(F)(F)F [FRF-02-167]
  TNF (Median): 1.101
  Activity class: A (high activity—class A: TNF %>15%)
  TNF % (Median): 51.62%

## Cc1ccc(-c2cn3cccnc3n2)cc1NC(=O)Cc1ccccc1 [FRF-02-103]
  TNF (Median): 0.008
  Activity class: C (low activity—class C: TNF %≤1%)
  TNF % (Median): 0.18%

## Cc1ccc(-c2cn3cc(F)cnc3n2)cc1NC(=O)c1ccccc1C(F)(F)F [FRF-02-118]
  TNF (Median): 1.8795
  Activity class: A (high activity—class A: TNF %>15%)
  TNF % (Median): 43.53%

## Cc1ccc(-c2cn3cccnc3n2)cc1NC(=O)c1ccccc1C [Example 37.17]
  TNF (Median): 0.865
  Activity class: A (high activity—class A: TNF %>15%)
  TNF % (Median): 20.64%

## COc1cnc2nc(-c3ccc(C)c(NC(=O)c4ccccc4C(F)(F)F)c3)cn2c1 [FRF-02-135]
  TNF (Median): 0.0705
  Activity class: B (medium activity—class B: 1%<TNF %≤15%)
  TNF % (Median): 1.60%

## Cc1ccc(-c2cn3cccnc3n2)cc1NC(=O)c1ccccc1Br [Example 37.16]
  TNF (Median): 3.5625
  Activity class: A (high activity—class A: TNF %>15%)
  TNF % (Median): 90.17%

## Cc1ccc(-c2cn3cc(F)cnc3n2)cc1NC(=O)C(C)(C)c1ccccc1 [FRF-03-084-1]
  TNF (Median): 0.24
  Activity class: B (medium activity—class B: 1%<TNF %≤15%)
  TNF % (Median): 6.00%
